According to PubChem BioAssay AID248 (DTP/NCI, 2004):
Where “and” joins values, the source holds several entries; their conditions need not be identical. Identical values can stand only once. Toxic doses and inconclusive results are not listed. Rule as the data show it: active = T/C of 150% or more; inactive = T/C below 125%.

Tested on: L1210 leukemia ip in BDF1 mice, survival T/C
Assay: NCI In Vivo Anticancer Drug Screen. Data for tumor model L1210 Leukemia (intraperitoneal) in B6D2F1 (BDF1) mice
Details: endpoint: mean survival time, higher = longer survival
How it was run: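 Value reflects the ratio of survival in compound-treated mice to survival in vehicle-treated controls, with both groups carrying the same transplanted tumor.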

[1] = dose: 100.0 mg/kg/injection, schedule: Q04DX003 (ip), vehicle: saline with Tween-80
[2] = dose: 100.0 mg/kg/injection, schedule: Q01DX009 (ip), vehicle: saline
[3] = dose: 100.0 mg/kg/injection, schedule: Q04DX003 (ip), vehicle: saline
[4] = dose: 200.0 mg/kg/injection, schedule: Q01DX009 (ip), vehicle: saline
[5] = dose: 200.0 mg/kg/injection, schedule: Q04DX003 (ip), vehicle: saline
[6] = dose: 400.0 mg/kg/injection, schedule: Q01DX009 (ip), vehicle: saline
[7] = dose: 400.0 mg/kg/injection, schedule: Q04DX003 (ip), vehicle: saline
[8] = dose: 100.0 mg/kg/injection, schedule: Q01DX001 (ip), vehicle: saline
[9] = dose: 200.0 mg/kg/injection, schedule: Q01DX001 (ip), vehicle: saline
[10] = dose: 400.0 mg/kg/injection, schedule: Q01DX001 (ip), vehicle: saline
[11] = dose: 100.0 mg/kg/injection, schedule: Q01DX001 (ip), vehicle: other
[12] = dose: 100.0 mg/kg/injection, schedule: Q04DX003 (ip), vehicle: Klucel (hydroxypropylcellulose) (HPC)
[13] = dose: 200.0 mg/kg/injection, schedule: Q01DX001 (ip), vehicle: other
[14] = dose: 200.0 mg/kg/injection, schedule: Q04DX003 (ip), vehicle: Klucel (hydroxypropylcellulose) (HPC)
[15] = dose: 400.0 mg/kg/injection, schedule: Q01DX001 (ip), vehicle: other
[16] = dose: 200.0 mg/kg/injection, schedule: Q04DX003 (ip), vehicle: saline with Tween-80
[17] = dose: 400.0 mg/kg/injection, schedule: Q04DX003 (ip), vehicle: saline with Tween-80

Measured: T/C

CCCCCCCCCCCCCCCCC(/C=N/N=C(N)N)=N\N=C(N)N
inactive: dose: 15.0 mg/kg/injection, schedule: Q01DX Z (ip), vehicle: methylcellulose (MC) 95 % of control | dose: 30.0 mg/kg/injection, schedule: Q01DX Z (ip), vehicle: methylcellulose (MC) 98 % of control | dose: 60.0 mg/kg/injection, schedule: Q01DX Z (ip), vehicle: methylcellulose (MC) 110 % of control | dose: 120.0 mg/kg/injection, schedule: Q01DX Z (ip), vehicle: methylcellulose (MC) 103 % of control | dose: 240.0 mg/kg/injection, schedule: Q01DX Z (ip), vehicle: methylcellulose (MC) 101 % of control | dose: 360.0 mg/kg/injection, schedule: Q01DX Z (ip), vehicle: methylcellulose (MC) 97 % of control | dose: 480.0 mg/kg/injection, schedule: Q01DX Z (ip), vehicle: methylcellulose (MC) 98 % of control | dose: 720.0 mg/kg/injection, schedule: Q01DX Z (oral), vehicle: methylcellulose (MC) 97 % of control | dose: 960.0 mg/kg/injection, schedule: Q01DX Z (oral), vehicle: methylcellulose (MC) 93 % of control

N#Cc1cn(C2CCCCC2)c2ncccc12
inactive: dose: 25.0 mg/kg/injection, schedule: Q04DX003 (ip), vehicle: saline with Tween-80 90 % of control | dose: 50.0 mg/kg/injection, schedule: Q04DX003 (ip), vehicle: saline with Tween-80 97 % of control | [1] 93 % of control

O=C(O)CN1C(=O)C2CC=CCC2C1=O (configuration not stated)
inactive: [2] 91 % of control | [3] 96 % of control | [4] 96 % of control | [5] 93 % of control | [6] 86 % of control | [7] 91 % of control

C#CC(C)(O)C(C)(C)C (configuration not stated)
inactive: dose: 100.0 mg/kg/injection, schedule: Q04DX002 (ip), vehicle: saline with Tween-80 91 % of control | dose: 200.0 mg/kg/injection, schedule: Q04DX002 (ip), vehicle: saline with Tween-80 95 % of control | dose: 400.0 mg/kg/injection, schedule: Q04DX002 (ip), vehicle: saline with Tween-80 87 % of control

Clc1ccc(/C=N\Nc2c3ccccc3nc3ccccc23)cc1Cl
inactive: [8] 97 % of control | [9] 94 % of control | [10] 111 % of control

CCC(O)(CC)C(=O)Nc1ccccc1
inactive: dose: 50.0 mg/kg/injection, schedule: Q01DX001 (ip), vehicle: saline 98 % of control | [8] 104 % of control | [9] 96 % of control | [10] 102 % of control

N=c1ccccn1CC(Cl)COc1ccccc1 (configuration not stated)
inactive: [8] 104 % of control

CCC(=O)c1ccc(N2CCOCC2)cc1
inactive: dose: 50.0 mg/kg/injection, schedule: Q04DX003 (ip), vehicle: Klucel (hydroxypropylcellulose) (HPC) 97 % of control | [11] 107 % of control | [12] 101 % of control | [13] 107 % of control | [14] 108 % of control | [15] 107 % of control

Cc1ccc(NC(=S)NC(=O)c2cccc([N+](=O)[O-])c2)cc1C
inactive: dose: 50.0 mg/kg/injection, schedule: Q01DX009 (ip), vehicle: saline with Tween-80 97 % of control and 112 % of control | dose: 100.0 mg/kg/injection, schedule: Q01DX001 (ip), vehicle: saline with Tween-80 92 % of control | dose: 100.0 mg/kg/injection, schedule: Q04DX002 (ip), vehicle: alcohol 93 % of control and 103 % of control | [1] 95 % of control | dose: 200.0 mg/kg/injection, schedule: Q01DX001 (ip), vehicle: saline with Tween-80 101 % of control | dose: 200.0 mg/kg/injection, schedule: Q04DX002 (ip), vehicle: alcohol 93 % of control and 103 % of control | [16] 94 % of control | dose: 400.0 mg/kg/injection, schedule: Q01DX001 (ip), vehicle: saline with Tween-80 98 % of control | dose: 400.0 mg/kg/injection, schedule: Q04DX002 (ip), vehicle: alcohol 93 % of control and 98 % of control | [17] 106 % of control

N#C/C(=C\c1ccccn1)c1ccc(Cl)cc1
inactive: [11] 95 % of control | [13] 92 % of control | [15] 94 % of control

O=S(c1ccccc1)C(Cl)C1(O)CCCCC1 (configuration not stated)
inactive: dose: 100.0 mg/kg/injection, schedule: Q03DX002 (ip), vehicle: saline with Tween-80 98 % of control | dose: 200.0 mg/kg/injection, schedule: Q03DX002 (ip), vehicle: saline with Tween-80 98 % of control | dose: 400.0 mg/kg/injection, schedule: Q03DX002 (ip), vehicle: saline with Tween-80 102 % of control

CCC1(C)CC(=O)N(C/C=C(\C)CCC=C(C)C)C(=O)C1
inactive: [1] 100 % of control | [16] 105 % of control | [17] 97 % of control

COc1ccc2cnnc(NN)c2c1
inactive: dose: 75.0 mg/kg/injection, schedule: Q01DX001 (ip), vehicle: other 97 % of control

CCCCCCCCCCCCNC(=O)Nc1ccc(C)cc1C
inactive: dose: 100.0 mg/kg/injection, schedule: Q01DX009 (ip), vehicle: Klucel (hydroxypropylcellulose) (HPC) 98 % of control | [12] 95 % of control | dose: 200.0 mg/kg/injection, schedule: Q01DX009 (ip), vehicle: Klucel (hydroxypropylcellulose) (HPC) 94 % of control | [14] 96 % of control | dose: 400.0 mg/kg/injection, schedule: Q01DX009 (ip), vehicle: Klucel (hydroxypropylcellulose) (HPC) 96 % of control | dose: 400.0 mg/kg/injection, schedule: Q04DX003 (ip), vehicle: Klucel (hydroxypropylcellulose) (HPC) 100 % of control

c1cc[n+]2c(c1)CC[n+]1ccccc1CC2
inactive: dose: 50.0 mg/kg/injection, schedule: Q01DX001 (ip), vehicle: carboxymethylcellulose (CMC) 106 % of control | dose: 100.0 mg/kg/injection, schedule: Q01DX001 (ip), vehicle: carboxymethylcellulose (CMC) 100 % of control | dose: 200.0 mg/kg/injection, schedule: Q01DX001 (ip), vehicle: carboxymethylcellulose (CMC) 122 % of control | dose: 400.0 mg/kg/injection, schedule: Q01DX001 (ip), vehicle: carboxymethylcellulose (CMC) 106 % of control

CN(CCCl)C1c2ccccc2-c2ccccc21
inactive: dose: 25.0 mg/kg/injection, schedule: Q04DX002 (ip), vehicle: saline 100 % of control | dose: 50.0 mg/kg/injection, schedule: Q04DX002 (ip), vehicle: saline 100 % of control | dose: 100.0 mg/kg/injection, schedule: Q04DX002 (ip), vehicle: saline 106 % of control and 117 % of control

Nc1ccc(S(=O)(=O)Nc2ccc(Nc3c4ccccc4nc4ccccc34)cc2)cc1
inactive: dose: 3.0 mg/kg/injection, schedule: Q01DX009 (ip), vehicle: saline with Tween-80 122 % of control | dose: 6.0 mg/kg/injection, schedule: Q01DX009 (ip), vehicle: saline with Tween-80 120 % of control

CC(=O)Nc1ccc(C(=O)O)c([N+](=O)[O-])c1
inactive: [2] 100 % of control | [3] 104 % of control | [4] 94 % of control | [5] 104 % of control | [6] 93 % of control | [7] 94 % of control

NC(N)=N/N=C/c1ccncc1
inactive: dose: 15.0 mg/kg/injection, schedule: Q01DX Z (ip), vehicle: saline 104 % of control | dose: 25.0 mg/kg/injection, schedule: Q01DX009 (ip), vehicle: saline 104 % of control | dose: 30.0 mg/kg/injection, schedule: Q01DX Z (ip), vehicle: saline 91 % of control | dose: 50.0 mg/kg/injection, schedule: Q01DX009 (ip), vehicle: saline 101 % of control | dose: 60.0 mg/kg/injection, schedule: Q01DX Z (ip), vehicle: saline 107 % of control | dose: 60.0 mg/kg/injection, schedule: Q01DX Z (oral), vehicle: saline 100 % of control | [2] 104 % of control | dose: 120.0 mg/kg/injection, schedule: Q01DX Z (ip), vehicle: saline 105 % of control | dose: 120.0 mg/kg/injection, schedule: Q01DX Z (oral), vehicle: saline 97 % of control | dose: 150.0 mg/kg/injection, schedule: Q01DX009 (ip), vehicle: saline 106 % of control | dose: 240.0 mg/kg/injection, schedule: Q01DX Z (oral), vehicle: saline 103 % of control
